Laboratory results published in patent US8008345B2, “Dermal therapy using phosphate derivatives of electron transfer agents” (Vital Health Sciences Pty. Ltd., priority 2001, dated 2011).
Counter-ions that a name gives are not always drawn.

Key:
insect bite = assay: Case: insect bite with blistering and inflammation (Example 9); format: in vivo, human; settings: oral anti-histamine plus topical corticosteroid cream together, first day
From the text: In this example, a method of the invention is used to treat erythema and inflammation symptoms associated with an insect bite.

photodamaged skin (face) = assay: Eight-week pilot study on photodamaged skin: clinical grading of efficacy (aging) parameters; format: in vivo, human; settings: pilot study outcome, stated for the active
Method: An eight-week double blind vehicle controlled pilot study was conducted to evaluate the effects of a topical treatment comprising tocopheryl phosphate complexes on improving the appearance of photodamaged skin. Ten female subjects completed the pilot study.
At Visit 1 (screening), prospective subjects completed a health and eligibility questionnaire, and signed a photography release form and an informed consent agreement. Subjects were examined for study eligibility criteria according to the following classifications: […]
Qualified subjects returned to the clinic for Visit 2 (baseline). Subjects participated in the following clinical grading and instrumentation procedures: • Objective irritation (erythema, edema, scaling/skin dryness, rash) and subjective irritation (burning, itching, stinging, tingling, tightness) were assessed globally on the face. Results were recorded using the following scale: 0=none, 1=mild, 2=moderate, and 3=severe. • The following efficacy (aging) parameters were graded at the specified locations using a analog scale (extremes of the scale are listed in parentheses). […]
Mean scores for clinical grading parameters and pinch recoil measurements at Week 4 and Week 8 were statistically compared to baseline using a paired t-test at the p≦0.05 significance level. Mean percent change from baseline was calculated for all attributes. […]

facial skin = system: facial skin; parameters: species or system human; settings: in vivo
Method: Qualified subjects returned to the clinic for Visit 2 (baseline). Subjects participated in the following clinical grading and instrumentation procedures: • Objective irritation (erythema, edema, scaling/skin dryness, rash) and subjective irritation (burning, itching, stinging, tingling, tightness) were assessed globally on the face. Results were recorded using the following scale: 0=none, 1=mild, 2=moderate, and 3=severe. • The following efficacy (aging) parameters were graded at the specified locations using a analog scale (extremes of the scale are listed in parentheses).
Subjects were assigned to use test material Product A (cream from Example 4) or Product B (Vehicle control: emulsion system) according to a predetermined randomization. […]
Mean scores for clinical grading parameters and pinch recoil measurements at Week 4 and Week 8 were statistically compared to baseline using a paired t-test at the p≦0.05 significance level. Mean percent change from baseline was calculated for all attributes. […] For self-assessment questionnaire responses at Week 4 and Week 8, mean response values and standard deviations were calculated for each question.
Irritation parameters were graded according to a four-point scale where 0=None, 1=Mild, 2=Moderate, and 3=Severe. Efficacy parameters were assessed according to an analog scale where 0 represents positive scores and 10 represents negative scores.

| Compound | improvement of bite (insect bite) | appearance of fine lines, wrinkles and skin elasticity in photodamaged skin (photodamaged skin (face)) | objective or subjective skin irritation responses in users (facial skin) |
| --- | --- | --- | --- |
| CC(C)(C(=O)O)c1ccc(C(O)CCCN2CCC(C(O)(c3ccccc3)c3ccccc3)CC2)cc1 (stereo not drawn) [fexofenadine hydrochloride] | little improvement |  |  |
| Lauryliminodipropionic Acid Tocopheryl Phosphate |  | improved the appearance of fine lines, wrinkles and skin elasticity | did not produce objective or subjective skin irritation responses |
